# From PubChem BioAssay AID602211 (Sanford-Burnham Center for Chemical Genomics, 2012)
# Active and inactive are the calls of the source.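 Rule for the calls: active = mean IC50 at or below 10 µM; inactive = the rest.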
# Test system: H9c2 cardiomyocytes, H2O2 protection, ATPLite viability, 2 h
# Experiment: protection of H9c2 cardiomyocytes from H2O2 death, dose response, cell-based, ATPLite luminescence, set 2 (AID 602211);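 note: potency is for protection so actives keep ATP signal up against peroxide killing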
row,SMILES,IC50
1,Cc1nc(NC(=O)c2cc3c(C)nn(-c4ccccc4)c3s2)sc1C(=O)Nc1ccccc1,2.7 µM
2,CCN(C[C@H]1N[C@@](C)(C(=O)OC)[C@H]2C(=O)N(Cc3ccccc3)C(=O)[C@@H]12)C(=O)c1ccc(C(C)(C)C)cc1,6.25 µM
3,CCOC(=O)N1CCc2c(sc(NC(=O)CN3CCOCC3)c2C(=O)Nc2ccccc2)C1,39.9 µM (inactive)
4,COc1cccc(-c2cnc3c(NC=O)cc(-c4cc(OC)c(OC)c(OC)c4)cn23)c1,3.61 µM
5,Cc1ccc2[nH]c(=O)c(CN(Cc3ccco3)S(=O)(=O)c3c(C)ccc4nsnc34)cc2c1,1.32 µM
6,COC(=O)c1[nH]c2ccccc2c1NC(=O)CNC1CCCCC1,8.49 µM
7,CCOC(=O)N1CCC(n2c(SCC(=O)N3CCC(C)CC3)nc3ccccc3c2=O)CC1,> 79 µM (inactive)
8,CC(C)(C)OC(=O)CNC(=O)c1[nH]cnc1C(=O)NCC(=O)OCc1ccccc1,0.747 µM
9,CCOC(=O)c1ccc(-c2ccc(/C=C(\C#N)C(=O)NCC3CCCO3)o2)cc1 (stereo unspecified),> 79 µM (inactive)
10,Cc1ccc(-c2nnc3ccc(SCC(=O)N4CCCc5ccccc54)nn23)cc1,> 79 µM (inactive)
11,O=C(NCC(=O)N(Cc1cccs1)C(C(=O)NC1CCCCC1)c1ccco1)c1cccs1 (stereo unspecified),3.23 µM
12,Cc1cc(C)c2c(N)c(C(=O)N/N=C/c3cccnc3)sc2n1,12.1 µM (inactive)
13,COc1ccc(-c2oc3c(OC)c(OC)c(OC)c(O)c3c(=O)c2OC)cc1OC,12.1 µM (inactive)
14,COc1ccc(OC)c(NC(=O)COC(=O)c2c3c(nc4ccccc24)CCCC3)c1,1.15 µM
15,Nc1cc2[nH]c(=O)c3ccccc3c2cc1[N+](=O)[O-],5.96 µM
16,COc1ccc(-c2cc(-c3nnc(COC(=O)c4ccncc4)o3)c3ccccc3n2)cc1OC,5.89 µM
17,COc1ccc(C(=O)Nc2cccc(/C(C)=N/NC(=O)c3ccc([N+](=O)[O-])c(C)c3)c2)cc1OC,4.93 µM
18,Nc1nonc1-n1nnc(C(=O)N/N=C/c2ccccn2)c1CNc1ccccc1,16.3 µM (inactive)

row,SMILES,IC50
1,COc1ccc(Nc2nc(C(=O)N3CCc4cc(OC)c(OC)cc4C3)cs2)cc1,4.29 µM
2,COC(=O)c1ccc(C(=O)OC)c(NC(=O)COC(=O)C23CC4CC(CC(O)(C4)C2)C3)c1,3.4 µM
3,CCC(CC)C(=O)Nc1cc(C)c2c(=O)oc3ccccc3c2n1,2.05 µM
4,O=C(Nc1ccccc1)c1nc[nH]c1C(=O)NCCNC(=O)c1[nH]cnc1C(=O)Nc1ccccc1,0.668 µM
5,CC(C)N1C(=O)S/C(=C/c2ccc3c(c2)n(C)c(=O)n3C)C1=O,1.71 µM
6,COc1ccc(-c2cc3nc(-c4ccccc4)cc(N4CCN(C(C)=O)CC4)n3n2)cc1,8.73 µM
7,O=c1oc2ccc3ccccc3c2cc1-c1nnc(-c2ccccc2)o1,17.5 µM (inactive)
8,COc1ccc(OC)c(NC(=O)c2sc3ncnc(N4CCN(c5ccccn5)CC4)c3c2C)c1,16.2 µM (inactive)
9,COc1ccccc1OCC(=O)Nc1cccc(-c2nnc(-c3ccco3)o2)c1,> 79 µM (inactive)
10,Cc1ccc(NC(=O)c2cc(-c3cccs3)nc3ccccc23)nc1,8.28 µM
11,CCCNC(=O)c1c(N)n(-c2cccc(OC)c2)c2nc3ccccc3nc12,> 79 µM (inactive)
12,COc1ccc(C(C(=O)NCc2ccccc2)N(Cc2ccco2)C(=O)c2snc(C(N)=O)c2N)cc1 (stereo unspecified),3.63 µM
13,COc1cccc(-c2cnc3c(NC=O)cc(-c4cc(C)c(O)c(C)c4)cn23)c1,10.2 µM (inactive)
14,COc1ccc(OC)c(Nc2nc(N)c([N+](=O)[O-])c(N3CCOCC3)n2)c1,11.8 µM (inactive)
15,CCN(C[C@H]1N[C@@](Cc2ccccc2)(C(=O)OC)[C@H]2C(=O)N(C)C(=O)[C@@H]12)S(=O)(=O)c1ccc(OC)cc1,21.1 µM (inactive)
16,O=C1N[C@H](Cc2ccccc2)COC(=O)[C@@H](Cc2ccc(F)cc2)C/C=C\C[C@H]1CC(=O)N(CCO)Cc1ccccc1,> 79 µM (inactive)
17,COc1ccc(C(=O)Nc2cc(C)nn2-c2nc3ccccc3[nH]2)c(OC)c1,10.9 µM (inactive)
18,COc1cccc(OC)c1C(=O)Nc1cc(C)nn1-c1nc2ccccc2[nH]1,4.1 µM
